Where a name gives a salt, the structure may show the parent alone.
Molecular target: recombinant sEH (soluble epoxide hydrolase, EPHX2) (Homo sapiens (Human), UniProt P34913)
Assay: biochemical fluorometric sEH inhibition assay with Phome substrate
Details: recombinant sEH purified from Sf9 insect cells, 2 nM sEH, 5 μM Phome, 60 minutes at 30° C.
Experimental: Compounds were tested in a biochemical screening assay using recombinant sEH purified from Sf9 insect cells and an artificial substrate, (3-phenyl-oxiranyl)-acetic acid cyano-(6-methoxy-naphtalen-2-yl)-methyl ester, Phome. The biochemical assay was performed in analogy to a fluorometric described in the literature (P. D. Jones et al., Anal. Biochem. 2005, 343, 66-75). The assay principle bases on the sEH-catalyzed hydrolysis of an artificial α-cyano-ester substrate. O-deacetylation liberates a cyanohydrin intermediate that rapidly decomposes to the highly fluorescent 6-methoxy-2-naphtaldehyde. To discriminate sample autofluorescence, the assay was carried out as a kinetic measurement with two time points. The first measurement is performed immediately before addition of the substrate and the […] measurement is done after completion of the assay. The assay format is either in 96- or in 384-well format.
Details of the assay using a 96-well plate format are described below. 40 μl recombinant sEH enzyme and 5 μl test compound are pre-incubated for 15 minutes at 30° C. Following pre-incubation, the reaction is started by addition of 5 μl Phome. The assay mixture containing 2 nM final sEH concentration, test compound ranging in a concentration from 0.0001-10 μM and 5 μM Phome is incubated for 60 minutes at 30° C.
Fluorescence is measured with any suitable detector for instance a TECAN Safire or Tecan Ultra at […]. % inhibition of recombinant sEH activity is used for calculation of corresponding IC50 values as illustrated and described in the examples.
The NCBI gene bank reference sequence with the accession number NM_001979 for EPHX2/sEH was applied for recombinant protein production:
The following commercially available materials have been used: • Incubation reagent: 25 mM Hepes (Sigma-Aldrich, Cat. No H-3375), 0.01% bovine albumin (Sigma-Aldrich Cat. No PA9205) • Substrate: 3-Phenyl-oxiranyl)-acetic acid cyano-(6-methoxy-naphtalen-2-yl)-methyl ester, Phome (Biozol Cat. No 10003134) • Microtiter plates: 96-well plates (Greiner Cat. No 655180; Costar Cat. No 3915)

Chain of recombinant sEH (soluble epoxide hydrolase, EPHX2) (P34913 whole entry): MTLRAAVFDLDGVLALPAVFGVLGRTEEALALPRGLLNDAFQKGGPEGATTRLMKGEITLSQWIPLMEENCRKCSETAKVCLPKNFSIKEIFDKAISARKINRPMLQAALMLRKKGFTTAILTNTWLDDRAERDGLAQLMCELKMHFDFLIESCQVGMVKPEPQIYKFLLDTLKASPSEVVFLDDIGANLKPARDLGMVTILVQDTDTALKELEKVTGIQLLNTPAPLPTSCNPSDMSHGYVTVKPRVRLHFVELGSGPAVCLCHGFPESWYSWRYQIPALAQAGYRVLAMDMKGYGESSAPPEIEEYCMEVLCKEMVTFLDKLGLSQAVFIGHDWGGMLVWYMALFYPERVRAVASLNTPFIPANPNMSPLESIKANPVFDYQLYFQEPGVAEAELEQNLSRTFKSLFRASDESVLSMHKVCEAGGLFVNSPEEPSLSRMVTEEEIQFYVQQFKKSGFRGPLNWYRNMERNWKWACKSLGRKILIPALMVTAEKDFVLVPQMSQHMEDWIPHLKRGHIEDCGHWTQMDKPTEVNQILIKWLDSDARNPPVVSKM

SMILES | IC50 [nM]
COCCOCC(=O)N1CCN(Cc2ncc(C(=O)NCc3ccc(Cl)cc3Cl)s2)CC1 [Example 188] | 15.9
COc1ccc(CNC(=O)c2ccc(CN3CCN(C(=O)c4c(C)cc(=O)oc4C)CC3)s2)c(C(F)(F)F)c1 [Example 9] | 3.06
CCc1oncc1C(=O)N1CCN(Cc2ccc(C(=O)NCc3ccc(Cl)cc3Cl)s2)CC1 [Example 90] | 1.43
O=C(NCc1ccc(Cl)cc1Cl)c1cnc(CN2CCN(C(=O)CN3CCOC3=O)CC2)s1 [Example 193] | 15.2
O=C(NCc1ccc(Cl)cc1Cl)c1ccc(CN2CCN(C(=O)c3ccc(F)cc3Cl)CC2)s1 [Example 43] | 2.74
COCCCC(=O)N1CCN(Cc2ncc(C(=O)NCc3ccc(Cl)cc3Cl)s2)CC1 [Example 166] | 21.3
O=C(NCc1ccc(Cl)cc1Cl)c1ccc(CN2CCN(C(=O)COc3ccccc3)CC2)s1 [Example 42] | 2.7
O=C(NCc1ccccc1OC(F)(F)F)c1ccc(CN2CCN(C(=O)C3CC3)CC2)s1 [Example 141] | 1.86
COCCOCC(=O)N1CCN(Cc2ccc(C(=O)NCc3ccccc3OC(F)(F)F)s2)CC1 [Example 83] | 2.37
NC1(C(=O)N2CCN(Cc3ccc(C(=O)NCc4ccccc4OC(F)(F)F)s3)CC2)CC1 [Example 115, 5-[4-(1-Amino-cyclopropanecarbonyl)-piperazin-1-ylmethyl]-thiophene-2-carboxylic acid 2-trifluoromethoxy-benzylamide, trifluoroacetate] | 1.64
COc1cc(CNC(=O)c2ccc(CN3CCN(C(=O)C4CC(=O)OC4(C)C)CC3)s2)ccn1 (centres unmarked) [Example 40] | 2.75
CN1CCC(C(=O)N2CCN(Cc3ncc(C(=O)NCc4ccc(Cl)cc4Cl)s3)CC2)CC1 [Example 190] | > 1000
CN1CC(C(=O)N2CCN(Cc3ccc(C(=O)NCc4ccccc4OC(F)(F)F)s3)CC2)CC1=O (centres unmarked) [Example 44] | 2.72
O=C(NCc1ccc(Cl)cc1Cl)c1cnc(CN2CCN(C(=O)C3CCCO3)CC2)s1 (centres unmarked) [Example 182] | 18.4
COCCC(=O)N1CCN(Cc2ncc(C(=O)NCc3ccc(Cl)cc3Cl)s2)CC1 [Example 173] | 33.4
CC(C)(O)CC(=O)N1CCN(Cc2ccc(C(=O)NCc3ccccc3OC(F)(F)F)s2)CC1 [Example 128] | 1.73
O=C1NCC(C(=O)N2CCN(Cc3ncc(C(=O)NCc4ccc(Cl)cc4Cl)s3)CC2)N1 (centres unmarked) [Example 203] | 36.3
Cc1cc(C(=O)NCc2ccccc2OC(F)(F)F)sc1CN1CCN(C(=O)c2c(C)cc(=O)oc2C)CC1 [Example 148] | 1.87
O=C(NCc1ccccc1C(F)(F)F)c1ccc(CN2CCN(C(=O)[C@@H]3C[C@H]3c3ccccc3)CC2)s1 [Example 76] | 2.53
O=C(NCc1ccccc1OC(F)(F)F)c1ccc(CN2CCN(C3CCCC3)C(=O)C2)s1 [Example 38] | 0.803
O=C(NCc1ccccc1C(F)(F)F)c1ccc(CN2CCN(C(=O)c3cnn4ccccc34)CC2)s1 [Example 151] | 1.97
Cc1cccc(C(=O)N2CCN(Cc3ncc(C(=O)NCc4ccc(Cl)cc4Cl)s3)CC2)n1 [Example 174] | 14.8

SMILES | IC50 [nM]
CC1(C)CC[C@@H](C(=O)N2CCN(Cc3ccc(C(=O)NCc4ccccc4OC(F)(F)F)s3)CC2)N1 [Example 86] | 2.38
Cc1cccnc1N1CCN(Cc2ccc(C(=O)NCc3ccccc3OC(F)(F)F)s2)CC1=O [Example 112] | 1.64
O=C(NCc1ccccc1OC(F)(F)F)c1ccc(CN2CCN(C(=O)N3CCCC3)CC2)s1 [Example 19] | 0.695
O=C(NCc1ccc(Cl)cc1Cl)c1cnc(CN2CCN(C(=O)CCO)CC2)s1 [Example 163] | 25.2
O=C(NCc1ccccc1OC(F)(F)F)c1ccc(CN2CCN(C(=O)C3(O)CC3)CC2)s1 [Example 37] | 0.929
CN1CCC[C@H]1C(=O)N1CCN(Cc2ncc(C(=O)NCc3ccc(Cl)cc3Cl)s2)CC1 [Example 184] | 115
COc1ccc(CNC(=O)c2ccc(CN3CCN(C(=O)C(C)O)CC3)s2)c(OC(F)(F)F)c1 (centres unmarked) [Example 32] | 0.756
COc1ccc(OC)c(C(=O)N2CCN(Cc3ccc(C(=O)NCc4ccccc4OC(F)(F)F)s3)CC2)n1 [Example 67] | 1.21
O=C(NCc1ccc(Cl)cc1Cl)c1ccc(CN2CCN(C(=O)c3ccccn3)CC2)s1 [Example 77] | 2.49
CNC(=O)c1cccnc1N1CCN(Cc2ccc(C(=O)NCc3ccccc3OC(F)(F)F)s2)CC1 [Example 135] | 2.14
COc1cccnc1C(=O)N1CCN(Cc2ccc(C(=O)NCc3ccccc3OC(F)(F)F)s2)CC1 [Example 97] | 1.6
O=C(NCc1ccccc1OC(F)(F)F)c1ccc(CN2CCN(C(=O)c3nc(F)ccc3F)CC2)s1 [Example 129] | 1.73
O=C(NCc1ccc(Cl)cc1Cl)c1cnc(CN2CCN(C(=O)c3ccccn3)CC2)s1 [Example 186] | 33.7
COc1ccc(CNC(=O)c2ccc(CN3CCN(c4cc(C)ccn4)CC3)s2)c(OC(F)(F)F)c1 [Example 127] | 1.73
CC(C(=O)N1CCN(Cc2ccc(C(=O)NCc3ccccc3OC(F)(F)F)s2)CC1)N(C)C (centres unmarked) [Example 138] | 6.27
CCOc1ccccc1C(=O)N1CCN(Cc2ccc(C(=O)NCc3ccccc3C(F)(F)F)s2)CC1 [Example 53] | 1.02
Cn1cccc1C(=O)N1CCN(Cc2ccc(C(=O)NCc3ccccc3C(F)(F)F)s2)CC1 [Example 51] | 0.994
CCC(C)(O)C(=O)N1CCN(Cc2ncc(C(=O)NCc3ccc(Cl)cc3Cl)s2)CC1 (centres unmarked) [Example 167] | 12.2
O=C(NCc1ccccc1OC(F)(F)F)c1ccc(CN2CCN(C(=O)CN3CCOC3=O)CC2)s1 [Example 156] | 2
Cn1nc(C(C)(C)C)cc1C(=O)N1CCN(Cc2ccc(C(=O)NCc3ccccc3C(F)(F)F)s2)CC1 [Example 25] | 2.76
CC(C)(O)CC(=O)N1CCN(Cc2ncc(C(=O)NCc3ccc(Cl)cc3Cl)s2)CC1 [Example 185] | 13.8
CC[C@@H](O)C(=O)N1CCN(Cc2ccc(C(=O)NCc3ccccc3OC(F)(F)F)s2)CC1 [Example 96] | 1.57

SMILES | IC50 [nM]
CNC(=O)c1cccnc1N1CCN(Cc2ccc(C(=O)NCc3ccc(OC)cc3OC(F)(F)F)s2)CC1 [Example 74] | 2.66
COc1cccnc1C(=O)N1CCN(Cc2ncc(C(=O)NCc3ccc(Cl)cc3Cl)s2)CC1 [Example 196] | 36.4
O=C(NCc1ccc(Cl)cc1Cl)c1ccc(CN2CCN(C(=O)c3ccccc3F)CC2)s1 [Example 131] | 2.13
O=C(NCc1ccc(Cl)cc1Cl)c1cnc(CN2CCN(C(=O)C3CCOC3)CC2)s1 (centres unmarked) [Example 183] | 18.8
COc1cccc(C(=O)N2CCN(Cc3ncc(C(=O)NCc4ccc(Cl)cc4Cl)s3)CC2)n1 [Example 202] | 13.3
COc1ccc(CNC(=O)c2ccc(CN3CCN(c4ccc(O)nn4)CC3)s2)c(OC(F)(F)F)c1 [Example 22] | 2.8
O=C(NCc1ccc(Cl)cc1Cl)c1ccc(CN2CCN3C(=O)CCC3C2)s1 (centres unmarked) [Example 114] | 1.67
O=C(NCc1ccc(Cl)cc1Cl)c1cnc(CN2CCN(C(=O)C3COCCO3)CC2)s1 (centres unmarked) [Example 170] | 18
Cc1cc(=O)oc(C)c1C(=O)N1CCN(Cc2ccc(C(=O)NCc3ccccc3OC(F)(F)F)s2)CC1 [Example 35] | 0.916
COc1ncccc1C(=O)N1CCN(Cc2ccc(C(=O)NCc3ccccc3C(F)(F)F)s2)CC1 [Example 57] | 1.13
CSCCC(=O)N1CCN(Cc2ccc(C(=O)NCc3ccccc3OC(F)(F)F)s2)CC1 [Example 137] | 1.76
CN[C@H](C(=O)N1CCN(Cc2ccc(C(=O)NCc3ccccc3OC(F)(F)F)s2)CC1)[C@@H](C)O [Example 41] | 2.75
NC1(C(=O)N2CCN(Cc3ccc(C(=O)NCc4ccccc4OC(F)(F)F)s3)CC2)CCC1 [Example 143] | 1.85
CC1(C)C(=O)NCCN1Cc1ccc(C(=O)NCc2ccccc2OC(F)(F)F)s1 [Example 62] | 1.14
O=C(NCc1ccc(Cl)cc1Cl)c1cnc(CN2CCN(C(=O)c3ccc[nH]c3=O)CC2)s1 [Example 178] | 58.6
O=C(NCc1ccc(Cl)cc1Cl)c1cnc(CN2CCN(C(=O)c3cccc(O)n3)CC2)s1 [Example 175] | 20.4
O=C(NCc1ccccc1OC(F)(F)F)c1ccc(CN2CCN(C3CCS(=O)(=O)C3)CC2)s1 (centres unmarked) [Example 85] | 2.44
O=C(NCc1ccc(Cl)cc1Cl)c1ccc(CN2CCN(C(=O)[C@@H]3C[C@H]3c3ccccc3)CC2)s1 [Example 153] | 2.56
COc1ccc(CNC(=O)c2ccc(CN3CCN(CC(F)(F)F)C(=O)C3)s2)c(OC(F)(F)F)c1 [Example 56] | 1.01
O=C(NCc1ccc(Cl)cc1Cl)c1ccc(CN2CCN(C(=O)c3cnn4ccccc34)CC2)s1 [Example 8] | 0.512
COc1ccc(CNC(=O)c2ccc(CN3CCN(c4nccn4C)CC3)s2)c(OC(F)(F)F)c1 [Example 113] | 1.67
